Test results as given in ChEMBL document CHEMBL1128909, “Catechol based inhibitors of 15-lipoxygenase” (Bioorg Med Chem Lett, 1996).

What was measured:
[1] = biological target: T1, Polyunsaturated fatty acid lipoxygenase ALOX12 (Homo sapiens, UniProt P18054); experiment: Inhibitory activity against human platelet 12-lipoxygenase
T1 sequence (P18054 whole entry): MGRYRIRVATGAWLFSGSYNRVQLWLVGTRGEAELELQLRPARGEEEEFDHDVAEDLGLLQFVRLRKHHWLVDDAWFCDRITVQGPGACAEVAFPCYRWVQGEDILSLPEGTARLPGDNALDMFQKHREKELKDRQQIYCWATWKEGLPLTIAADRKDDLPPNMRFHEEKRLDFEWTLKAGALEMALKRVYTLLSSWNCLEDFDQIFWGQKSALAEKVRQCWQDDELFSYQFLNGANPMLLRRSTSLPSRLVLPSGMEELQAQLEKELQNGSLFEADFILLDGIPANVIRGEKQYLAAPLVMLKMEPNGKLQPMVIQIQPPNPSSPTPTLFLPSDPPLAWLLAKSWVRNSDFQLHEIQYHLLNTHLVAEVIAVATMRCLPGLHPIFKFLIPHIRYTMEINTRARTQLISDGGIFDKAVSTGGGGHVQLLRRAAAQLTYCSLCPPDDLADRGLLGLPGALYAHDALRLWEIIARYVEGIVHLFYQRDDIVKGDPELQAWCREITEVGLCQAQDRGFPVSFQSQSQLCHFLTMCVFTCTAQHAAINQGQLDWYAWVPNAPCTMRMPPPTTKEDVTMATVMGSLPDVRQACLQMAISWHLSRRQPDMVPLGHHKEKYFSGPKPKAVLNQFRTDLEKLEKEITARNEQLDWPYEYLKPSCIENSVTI

[2] = biological target: T2, Polyunsaturated fatty acid 5-lipoxygenase (Rattus norvegicus, UniProt P12527); experiment: Inhibitory activity against rat basophilic leukemia cell 5-lipoxygenase (5-LO)
T2 sequence (P12527 whole entry): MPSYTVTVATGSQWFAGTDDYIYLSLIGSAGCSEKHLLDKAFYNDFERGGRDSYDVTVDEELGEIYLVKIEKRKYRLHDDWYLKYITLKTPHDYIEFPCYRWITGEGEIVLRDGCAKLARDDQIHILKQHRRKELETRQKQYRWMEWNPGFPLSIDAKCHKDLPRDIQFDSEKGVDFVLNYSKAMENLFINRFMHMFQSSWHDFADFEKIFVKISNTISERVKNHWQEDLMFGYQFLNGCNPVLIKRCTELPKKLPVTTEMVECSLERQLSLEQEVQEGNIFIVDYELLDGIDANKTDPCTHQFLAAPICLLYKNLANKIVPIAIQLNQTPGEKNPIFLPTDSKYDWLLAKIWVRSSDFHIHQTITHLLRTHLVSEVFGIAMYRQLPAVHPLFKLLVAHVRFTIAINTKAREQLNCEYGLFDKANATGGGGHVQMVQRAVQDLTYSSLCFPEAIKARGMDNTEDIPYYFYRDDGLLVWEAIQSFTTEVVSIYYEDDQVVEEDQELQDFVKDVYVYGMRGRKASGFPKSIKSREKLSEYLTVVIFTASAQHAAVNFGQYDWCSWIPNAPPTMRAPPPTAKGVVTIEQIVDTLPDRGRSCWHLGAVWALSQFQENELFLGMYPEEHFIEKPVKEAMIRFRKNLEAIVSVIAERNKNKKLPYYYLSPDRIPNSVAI

IC50 [1]: 5000 nM
IC50 [2]: 280 nM
Compound: O=C(Nc1ccc(CCc2ccc(O)c(O)c2)cc1)c1ccccc1O
